One assay deals with alkaline phosphatase. Also noted: method as in PMID 10617768. As to conditions: up to 1–10 µM; cited from earlier work.
The subject of a further assay is PP5. The arrangement: method as in PMID 10617768. As to conditions: mammalian brain; cited from earlier work.
The subject of another assay is PP2B. Also noted: method as in PMID 10617768. As to conditions: mammalian brain; cited from earlier work.
A further assay concerns PTP. Also noted: method as in PMID 10617768. The settings on record: up to 1–10 µM; cited from earlier work.
Assay [1] has as its system GABAA receptor currents in pyramidal neurons. The arrangement: method as in PMID 15342727. The settings on record: 10 µM in the pipette milieu, four neurons; cited from earlier work.
The next assay concerns PP7. Also noted: method as in PMID 10617768. As to conditions: up to 1–10 µM; cited from earlier work.
In a further assay the test system is acid phosphatase. Also noted: method as in PMID 10617768. The settings on record: up to 1–10 µM; cited from earlier work.
The subject of another assay is PP1. Also noted: method as in PMID 10617768. The settings on record: mammalian brain; cited from earlier work.
The test system of the next assay is PP2A. Also noted: method as in PMID 10617768. The settings on record: mammalian brain; cited from earlier work.
The subject of the next assay is PP2C. The arrangement: method as in PMID 10617768. The settings on record: up to 1–10 µM; cited from earlier work.
For assay [2], the system named is membrane-bound phosphatase activities of washed cortical membrane. Description: LC-MS/MS phosphatase assay with effectors, N-terminal phosphopeptide pI2α1N-P as substrate. The format is biochemical. The protocol:
(§1) Phosphatasic activity of bovine, rat and human washed cortical membranes was measured by using synthetic phosphopeptides as substrates. Reactions were performed in presence of 50 µg/ml (total proteins) of washed cortical membrane, 10 mM Hepes-Tris pH 7.4 and 1 mM MgCl2. Enzymatic reactions were initiated by adding 10 µM of phosphopeptide incubated for 10 min at 30°C and stopped by adding ice-cold acetic acid at a final concentration of 10% (w/v). Following a 800 g centrifugation during 10 min at 4°C, the supernatants were analyzed by LC-MS/MS. […] For these reasons, and to avoid micro-capillary column obstruction we have preferentially used the micro-LC column to characterize the pharmacological profile of phosphatasic activities.
Quantification of appearance of the native peptide and disappearance of the phosphopeptide in different conditions was performed using the calibration curve plotted using the Xcalibur software (P/N 64018-XCALI version 1.3). The calibration curve and linear regression were constructed using a series of standards, native and phosphorylated equimolar mixture, N- or C-terminal peptides at different concentrations 0.5, 1, 2, 5 and 10 µM (n = 2) in 10 mM Hepes pH 7.4, 1 mM Mg^2+ and 10% acetic acid, which was the same milieu condition as in the phosphatase assay after stopping reactions. The linear regression represents peak area of MS/MS chromatogram spectra depending on the peptide concentration (Figure S1).
Different effectors were tested by addition to the incubation medium at variable concentration: the dicationic ions Mg^2+, Ca^2+, Zn^2+ were used as chloride, the polycation spermine as hydrochloride, the anion F^− as sodium fluoride (NaF), and the inhibitors of some known phosphatases okadaic acid and the two (+/−) enantiomers of p–bromotetramisole oxalate (p-Br-t). For the inhibitory effects, relative 50% inhibition concentration (IC50) values were either determined graphically with a log-scale for the concentration axis or by the ‘log (inhibitor) vs. response’ nonlinear fit of Prism 5 software (GraphPad), considering activity in the absence of inhibitor as 100%.
Figure 4 Effects of various inhibitors on the membrane-bound phosphatase activities. […] Incubations were performed at 30°C during 10 min. The activities are expressed as a percentage of that of control samples without inhibitors. Inhibition profiles of PPase activities by okadaic acid were performed using N-terminal phosphopeptide (A) or C-terminal phosphopeptide (B) as substrate. The data points are means ± SEM of 3 experiments. The red arrows indicate the different IC50. […] Data points are the average ± SEM of duplicate assays. (D) Effect of Ca^2+ ions, fluoride (F^−) and spermine (SPM^4+) on PPase activity using N-terminal phosphopeptide as substrate.

Assay [3] shares this test system. As to the kind of experiment: LC-MS/MS phosphatase assay with effectors, C-terminal phosphopeptide pI2α1C-P as substrate. The format is biochemical. The protocol: as §1
Quantification of appearance of the native peptide and disappearance of the phosphopeptide in different conditions was performed using the calibration curve plotted using the Xcalibur software (P/N 64018-XCALI version 1.3). […]
Figure 4 Effects of various inhibitors on the membrane-bound phosphatase activities. […] The activities are expressed as a percentage of that of control samples without inhibitors. […]

Assay [4] deals with GABAA receptor currents in pyramidal neurons. As to the kind of experiment: Whole-cell patch clamp, rundown of GABAA currents in acutely dissociated cortical pyramidal neurons. It is filed as cell-based, rat. As to conditions: 10 µM in the pipette. As to the method:
Adult Sprague Dawley rats (35–40 days of age) were anesthetized by isoflurane and killed by decapitation. The brains were removed quickly and placed in cold artificial cerebro-spinal fluid (Ringer) containing (in mM) 126 NaCl, 3 KCl, 26 NaHCO3, 1.25 Na2HPO4, 2.5 CaCl2, 1.5 MgCl2, 10 D-glucose, saturated with carbogen gas (O2:CO2, 95:5%) pH 7.4. Cortical neurons were acutely dissociated from 400 µm thick slices by incubation in 3 mg/ml protease-XXIII (Sigma) at 32°C, followed by mechanical dissociation. After washing, the cells were transferred in a solution containing (in mM) 135 NaCl, 3 KCl, 2 CaCl2, 10 Hepes, 1 MgCl2, 7 TEA-Cl, 10 D-glucose, and 1 µM TTX, pH 7.4. Pyramidal neurons were recorded using borosilicate glass pipettes (4–5 MΩ) filled with a solution containing (in mM) 130 CsF, 10 CsCl, 4 NaCl, 0.5 CaCl2, 10 Hepes, 5 EGTA, and 7 Mg-ATP. Okadaic acid at 10 µM was added to this intracellular milieu for specific experiments.
Whole-cell peak currents induced by GABA (100 µM; fast applications of 1 sec pulses every 3 min) were measured for each application and normalized to the maximal response.
Figure 5 Effects of okadaic acid on the GABAA current rundown. GABAA currents were measured by whole-cell patch clamp on acutely dissociated cortical pyramidal neurons from Sprague Dawley rats. (A) Micrographs of a patched cell at two different magnifications, showing the rapid application device (left). (B) Rundown in cortical neuron: GABA was applied at a concentration of 100 µM during 1 second every 3 min. […] For each group the plot (Left) is the average of normalized currents. Error bars indicate the SEM.
On the technique in general: The patch-clamp technique gives a direct electrical read-out from membranes.

For a further assay, the system named is PP4. The arrangement: method as in PMID 10617768. As to conditions: mammalian brain; cited from earlier work.
The test system of the next assay is PP6. The arrangement: method as in PMID 10617768. As to conditions: mammalian brain; cited from earlier work.

Usually IC50 stands for the concentration that gives 50% inhibition. Take `C=C1[C@@H](O)[C@@H]2O[C@]3(CC[C@H](/C=C/[C@@H](C)[C@@H]4CC(C)=C[C@@]5(O[C@H](C[C@@](C)(O)C(=O)O)CC[C@H]5O)O4)O3)CC[C@H]2O[C@@H]1[C@@H](O)C[C@H](C)[C@H]1O[C@@]2(CCCCO2)CC[C@H]1C` [okadaic acid, Okadaic acid]: the inhibition result with alkaline phosphatase, in the assay with PTP, in the assay with PP7, with acid phosphatase and in the assay on PP2C was “not inhibited” each time. Besides, the half-maximal inhibitory concentration (IC50) in the assay with PP5 was 1.4 to 10 nM; with PP2B it was 3600 nM; in the assay with PP1 it was 270 nM; with PP2A it was 2 nM; in assay [2] (substrate pI2α1N-P, read-out: apparent IC50, high affinity (H)), 0.15 nM; in assay [2] (substrate pI2α1N-P, read-out: apparent IC50, low affinity (L)), 5 nM. Besides, the concentration for half-maximal inhibition (IC50) in assay [3] (only one affinity, read-out: apparent IC50) is 0.18 nM; in the assay with PP4, 0.2 nM; in the assay on PP6, 2 nM. The “effect on the GABAA current rundown” value in [1] is recorded as “variable effect”. Besides, the “inhibition of membrane-bound phosphatases” value in assay [2] (300 nM, substrate pI2α1N-P) was “completely inhibits”; in assay [3] (300 nM) it was “completely inhibits”. The “inhibition of phosphatasic activities by the phosphopeptide method” value in [2] (10 µM, substrate not specified) is given as “inhibited most phosphatasic activities”. Further, the “GABAA current rundown in some cells” value in assay [4] is recorded as “rundown could be abolished”. Besides, the “GABAA current rundown, 'Very Rapid' group of neurons vs control” value in [4] (n = 5, Dunnett's test Ns) is “not sensitive to okadaic acid”. Moreover, in assay [4] (p<0.01 Mid Rapid, p<0.0001 Mid Slow and Very Slow), the “GABAA current rundown, 'Mid Rapid', 'Mid Slow' and 'Very Slow' groups of neurons vs control” value is “statistically different from the control”.

These data come from PMC4072668, “Mass Spectrometric Detection and Characterization of Atypical Membrane-Bound Zinc-Sensitive Phosphatases Modulating GABAA Receptors” (PLoS ONE, 2014).
